Source: PubChem BioAssay AID2060908 (Molecular Pharmacology Branch, DTP, NCI, 2025)

Test system: 186277-243-T-J2-PDC complex spheroids, viability
Experiment: Anticancer human tumor 186277-243-T-J2-PDC patient-derived colon adenocarcinoma cell line growth inhibition [RAS]
Conditions: for IC50: curve of first compound; for viability, T/C: stronger effect = lower value; active = viability on the fitted dose curve at most 10% of control; inactive = the rest
Outline: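 Agents were tested in combination matrices in half-log decrements from a top concentration at or near clinical Cmax (10 microM if undetermined). Targets were multi-cell spheroids of tumour lines plus HUVEC and MSC stromal cells.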

[1] = second compound 0.00316 µM, first compound 0.0316 µM
[2] = second compound 0.00316 µM, first compound 0.1 µM
[3] = second compound 0.00316 µM, first compound 0.316 µM
[4] = second compound 0.00316 µM, first compound 1 µM
[5] = second compound 0.01 µM, first compound 0.0316 µM
[6] = second compound 0.01 µM, first compound 0.1 µM
[7] = second compound 0.01 µM, first compound 0.316 µM
[8] = second compound 0.01 µM, first compound 1 µM
[9] = second compound 0.0316 µM, first compound 0.0316 µM
[10] = second compound 0.0316 µM, first compound 0.1 µM
[11] = second compound 0.0316 µM, first compound 0.316 µM
[12] = second compound 0.0316 µM, first compound 1 µM
[13] = second compound 0.1 µM, first compound 0.0316 µM
[14] = second compound 0.1 µM, first compound 0.1 µM
[15] = second compound 0.1 µM, first compound 0.316 µM
[16] = second compound 0.1 µM, first compound 1 µM
[17] = second compound 0.316 µM, first compound 0.0316 µM
[18] = second compound 0.316 µM, first compound 0.1 µM
[19] = second compound 0.316 µM, first compound 0.316 µM
[20] = second compound 0.316 µM, first compound 1 µM
[21] = second compound 1 µM, first compound 0.0316 µM
[22] = second compound 1 µM, first compound 0.1 µM
[23] = second compound 1 µM, first compound 0.316 µM
[24] = second compound 1 µM, first compound 1 µM
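Also: spheroids exposed to compounds for 7 days before viability read.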

CC(Nc1ccc2c(c1)OCCn1cc(N3C(=O)OCC3C(F)F)nc1-2)C(N)=O (centres undefined) + C=CC(=O)N1CCN(c2nc(OCC3CCCN3C)nc3c(F)c(-c4nc(N)cc(C)c4C(F)(F)F)c(Cl)cc23)C(C)C1
344 nM: IC50 (second compound 1 µM)
1020 nM: IC50 (second compound 0.1 µM)
inactive: viability, T/C [1] 109% | viability, T/C [2] 108% | viability, T/C [3] 58.9% | viability, T/C [4] 40.8% | viability, T/C (second compound 0.00316 µM, first compound 3.16 µM) 34.7% | viability, T/C (second compound 0.00316 µM, first compound 10 µM) 35% | viability, T/C [5] 102% | viability, T/C [6] 109% | viability, T/C [7] 57.3% | viability, T/C [8] 42% | viability, T/C (second compound 0.01 µM, first compound 3.16 µM) 36.7% | viability, T/C (second compound 0.01 µM, first compound 10 µM) 25.3% | viability, T/C [9] 90.2% | viability, T/C [10] 105% | viability, T/C [11] 70.3% | viability, T/C [12] 47.1% | viability, T/C (second compound 0.0316 µM, first compound 3.16 µM) 37.4% | viability, T/C (second compound 0.0316 µM, first compound 10 µM) 33.5% | viability, T/C [13] 82.8% | viability, T/C [14] 99.9% | viability, T/C [15] 72.8% | viability, T/C [16] 50.5% | viability, T/C (second compound 0.1 µM, first compound 3.16 µM) 42.8% | viability, T/C (second compound 0.1 µM, first compound 10 µM) 31.2% | viability, T/C [17] 105% | viability, T/C [18] 103% | viability, T/C [19] 55.3% | viability, T/C [20] 42.5% | viability, T/C (second compound 0.316 µM, first compound 3.16 µM) 36.1% | viability, T/C (second compound 0.316 µM, first compound 10 µM) 33.7% | viability, T/C [21] 93.3% | viability, T/C [22] 98.5% | viability, T/C [23] 51% | viability, T/C [24] 44.1% | viability, T/C (second compound 1 µM, first compound 3.16 µM) 41.5% | viability, T/C (second compound 1 µM, first compound 10 µM) 28.3%
460 nM: IC50 (second compound 0.01 µM)
509 nM: IC50 (second compound 0.00316 µM)
771 nM: IC50 (second compound 0.0316 µM)
453 nM: IC50 (second compound 0.316 µM)

O=C(c1ccc(F)c(F)c1Nc1ccc(I)cc1F)N1CC(O)([C@@H]2CCCCN2)C1 + C=CC(=O)N1CCN(c2nc(OCC3CCCN3C)nc3c(F)c(-c4nc(N)cc(C)c4C(F)(F)F)c(Cl)cc23)C(C)C1
86.1 nM: IC50 (second compound 1 µM)
active: viability, T/C [4] 5.96% | viability, T/C [7] 11.9% | viability, T/C [8] 5.44% | viability, T/C [12] 5.54% | viability, T/C [16] 5.74% | viability, T/C [24] 6.57%
74.5 nM: IC50 (second compound 0.1 µM)
63.7 nM: IC50 (second compound 0.01 µM)
inactive: viability, T/C (second compound 0.00316 µM, first compound 0.00316 µM) 104% | viability, T/C (second compound 0.00316 µM, first compound 0.01 µM) 99.3% | viability, T/C [1] 59.9% | viability, T/C [2] 34% | viability, T/C [3] 12% | viability, T/C (second compound 0.01 µM, first compound 0.00316 µM) 93.8% | viability, T/C (second compound 0.01 µM, first compound 0.01 µM) 110% | viability, T/C [5] 79.2% | viability, T/C [6] 30.4% | viability, T/C (second compound 0.0316 µM, first compound 0.00316 µM) 99.3% | viability, T/C (second compound 0.0316 µM, first compound 0.01 µM) 87.8% | viability, T/C [9] 78.1% | viability, T/C [10] 35% | viability, T/C [11] 12.1% | viability, T/C (second compound 0.1 µM, first compound 0.00316 µM) 75.7% | viability, T/C (second compound 0.1 µM, first compound 0.01 µM) 98% | viability, T/C [13] 70.5% | viability, T/C [14] 42.8% | viability, T/C [15] 11.4% | viability, T/C (second compound 0.316 µM, first compound 0.00316 µM) 78.8% | viability, T/C (second compound 0.316 µM, first compound 0.01 µM) 92.2% | viability, T/C [17] 93.8% | viability, T/C [18] 35.9% | viability, T/C [19] 13.3% | viability, T/C [20] 7.18% | viability, T/C (second compound 1 µM, first compound 0.00316 µM) 98.1% | viability, T/C (second compound 1 µM, first compound 0.01 µM) 96.8% | viability, T/C [21] 82.6% | viability, T/C [22] 45.6% | viability, T/C [23] 13.2%
73.4 nM: IC50 (second compound 0.316 µM)
66.9 nM: IC50 (second compound 0.0316 µM)
52.1 nM: IC50 (second compound 0.00316 µM)
